Assay results taken from patent EP4786487A1, “PEPTIDE” (Peptidream Inc, priority 2023, dated 2025).
Where two headings read alike, the source gives them in different places. Starred links: 1 amine or outer side, 2 acyl side, 3 side chain; linkers in the order of their positions; H or OH if unused. Positions of bridges follow the written chain, without caps; N, C: chain ends. Non-standard residues stand in square brackets, D forms with d. Residues, ends and D or L forms follow the SMILES beside them. Trp(6-OH,1-(4-HO2C-Ph)) = N[C@@H](Cc1cn(-c2ccc(C(=O)O)cc2)c2cc(O)ccc12)C(=O)O; Phe(3-OCH2COOH) = N[C@@H](Cc1cccc(OCC(=O)O)c1)C(=O)O; N(CH2CH2CO)Gly = O=C(CN(CCC(=O)[*:3])[*:1])[*:2]; Phe(4-COOH) = N[C@@H](Cc1ccc(C(=O)O)cc1)C(=O)O; Gly(N(CH2)3COOH) = O=C(O)CCCNCC(=O)O; X1 = CCCCCCC[C@H](N[*:1])C(=O)[*:2]; NMeF = CN[C@@H](Cc1ccccc1)C(=O)O; NMeDap = CN[C@@H](CN)C(=O)O; NMeA = CN[C@@H](C)C(=O)O; Sar = CNCC(=O)O

Assays:
[1] = biological target: T1, Myostatin (Homo sapiens, UniProt O14793); experiment: Reporter gene assay for myostatin signaling in HepG2 cell line, Evaluation Procedure (1), myostatin inhibition; assay type: cell-based
T1 construct: active myostatin (also called mature myostatin) is a homodimer consisting of two C-terminal growth factor domains; purchased R&D systems 788-G8/CF
T1 sequence (O14793 267-375): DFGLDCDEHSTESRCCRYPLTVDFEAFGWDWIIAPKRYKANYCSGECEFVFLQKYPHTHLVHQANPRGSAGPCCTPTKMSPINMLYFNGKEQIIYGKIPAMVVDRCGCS
Procedure, shortened: (§1)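 HepG2 cells transfected with pGL3(CAGA)12-luciferase reporter, serum-starved in 0.1% BSA medium, then stimulated with myostatin or GDF-11 plus 4-fold peptide dilutions (0.006–100 nmol/L for myostatin, 0.12–2000 nmol/L for GDF-11) for 20–24 h at 37 °C. Luminescence read with One-Glo; IC50 calculated.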

[2] = test system: GDF-11; experiment: Reporter gene assay for myostatin signaling in HepG2 cell line, Evaluation Procedure (1), GDF-11 inhibition; assay type: cell-based; conditions: GDF-11 IC50 relative to myostatin IC50, HepG2
Procedure, shortened: as §1

[3] = biological target: T2, GDF-11 (Homo sapiens, UniProt O95390); experiment: as above; assay type: cell-based
T2 construct: purchased R&D systems 1958-GD-G8/CF
T2 sequence (O95390 299-407): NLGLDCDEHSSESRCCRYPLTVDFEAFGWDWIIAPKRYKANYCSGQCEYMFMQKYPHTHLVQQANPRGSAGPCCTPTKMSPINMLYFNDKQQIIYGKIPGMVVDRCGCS
Procedure, shortened: as §1

[4] = Distribution of peptide in skeletal muscle (plasma and quadriceps concentrations); assay type: in vivo; conditions: mouse, sc, 10 mg/kg subcutaneously, male CD1 mice; for level at 24 h: 24 hr after administration; for level at 48 h: 48 hr after administration; for level at 72 h: 72 hr after administration
Procedure: The peptide Myostatin_99_Variant_07 (SEQ ID NO: 3), synthesized according to Example 1, was administered subcutaneously at 10 mg/kg to male 6-8-week-old CD1 mice. Plasma and quadriceps concentrations were measured at 24, 48, and 72 hours after administration. […]
Note that plasma was separated from blood by centrifugation; 25% homogenate of tissue was prepared and deproteinized with 5% formic acid-containing acetonitrile; and the drug concentrations were determined using an LC/MS/MS system (LCMS-8060, Shimadzu Corporation).

[5] = test system: Myostatin; experiment: Reporter gene assay for myostatin signaling in HepG2 cell line, Evaluation Procedure (1), myostatin inhibition; assay type: cell-based; conditions: Method A; GDF-11 IC50 versus Myostatin IC50
Procedure, shortened: as §1

[6] = Muscle strength, body weight and serum creatine kinase in B10 mdx mice; assay type: in vivo, C57BL/10-mdx/Jcl mice; conditions: 10 mg/kg subcutaneous
Procedure: (§2) In this Example, the effect of the peptide Myostatin_99_Variant_07 (SEQ ID NO: 3), synthesized according to Example 1, on improvement of muscle strength in DMD model mice was evaluated using B10 mdx model mice (NPL 17).
(§3) To five-week-old male C57BL/10-mdx/Jcl (CLEA Japan, Inc.) mice, the peptide or solvent control (Vehicle) PBS was subcutaneously administered as shown in Table 11 three times a week or every day for 5 weeks.
(§4) Using a smart-type grip strength meter for rats and mice (MK-380V; Muromachi Kikai Co., Ltd.), forelimb and hindlimb grip strength measurements and body weight measurements were performed on the day of completion of the acclimation period (grouping day), and on Days 7, 14, 21, 27, and 33. The measurements were conducted with individual identification numbers blinded so that the examiner was unaware of the test conditions of the mice. The grip strength was measured seven times consecutively, and the average of five points, excluding the two points: the highest and lowest values, was used as individual data. The body weight was weighed using an electronic balance.
(§5) Serum creatine kinase (CK) concentrations (mean ± SEM) on Day 35, when the animals were euthanized, were also examined.

[7] = test system: B10 mdx model mice; experiment: Improvement of muscle strength and inhibition of muscle necrosis in B10 mdx mice; assay type: in vivo, C57BL/10-mdx/Jcl mice; conditions: 10 mg/kg subcutaneous
Procedure: as §2, §3, §4, §5

[8] = plasma, read-out: Plasma concentration
[9] = quadriceps muscle, quadriceps, read-out: Intramuscular concentration

SMILES	IC50 ([1]; HepG2, luciferase reporter, Evaluation Procedure (1), Method D) [µM]	Selectivity [2]	IC50 ([3]; HepG2, luciferase reporter, Evaluation Procedure (1), Method D, read-out: IC50 (Luciferase) GDP-11 HepG2) [µM]	level at 24 h [4, 8] [ng/mL]	level at 48 h [4, 8] [ng/mL]	level at 72 h [4, 8] [ng/mL]	level at 24 h [4, 9] [ng/mL]	level at 48 h [4, 9] [ng/mL]	level at 72 h [4, 9] [ng/mL]	IC50 ([1]; Method A: Myostatin 10 ng/mL, read-out: IC50 (Luciferase) Myostatin HepG2) [µM]	Selectivity [5]	time-course change in grip strength ([6]; vs. PBS (Fig. 3))	time-course change in body weight ([6]; vs. Vehicle (Fig. 4))	IC50 ([3]; Method A: GDF-11 10 ng/mL, read-out: IC50 (Luciferase) GDF-11 HepG2) [µM]	time-course change in grip strength ([7]; 3 times a week, vs. PBS Vehicle group, Fig. 3)	time-course change in body weight ([7]; 3 times a week, vs. Vehicle group, Fig. 4)	Serum creatine kinase (CK) concentrations (mean ± SEM) ([7]; Day 35, Vehicle group 3,836 ± 754 IU/L)
CCCCCCC[C@@H]1NC(=O)[C@H](Cc2ccccc2)N(C)C(=O)[C@H](CCCNC(=N)N)NC(=O)[C@H](Cc2ccc(C(=O)O)cc2)NC(=O)[C@H](Cc2cccc(OCC(=O)O)c2)NC(=O)[C@H]2CCCN2C(=O)[C@H]([C@@H](C)CC)NC(=O)[C@H](Cc2ccccc2)N(C)C(=O)[C@H](Cc2ccc(O)cc2)NC(=O)[C@H](Cc2cn(-c3ccc(C(=O)O)cc3)c3cc(O)ccc23)NC(=O)[C@H](C)NC(=O)CN2CCC(=O)NC[C@@H](C(=O)N(C)[C@@H](Cc3ccccc3)C(=O)N[C@H](C)C(=O)N(C)[C@@H](C)C2=O)N(C)C1=O [Myostatin_99_v489] (cyclo(A[Trp(6-OH,1-(4-HO2C-Ph))]Y[NMeF]I[dP][Phe(3-OCH2COOH)][Phe(4-COOH)]R[NMeF][X1][NMeDap][NMeF][dA][NMeA][N(CH2CH2CO)Gly]); lactam 12-16)	0.00012	365.6	0.0454														
CC[C@H](C)[C@@H]1NC(=O)[C@H](Cc2ccccc2)N(C)C(=O)[C@H](Cc2ccc(O)cc2)NC(=O)[C@H](Cc2c[nH]c3ccccc23)NC(=O)[C@H](C)NC(=O)CN(CCCC(=O)O)C(=O)CSC[C@H](C(=O)O)NC(=O)[C@H](Cc2ccccc2)N(C)C(=O)[C@H](C)N(C)C(=O)[C@H](CC(C)C)NC(=O)[C@H](Cc2ccccc2)N(C)C(=O)[C@H](CCCNC(=N)N)NC(=O)[C@H](Cc2ccc(C(=O)O)cc2)NC(=O)[C@H](Cc2ccc(O)cc2)NC(=O)CN(C)C1=O [Myostatin_99_Variant_07] ({CH2CO}-[Gly(N(CH2)3COOH)]AWY[NMeF]I[Sar]Y[Phe(4-COOH)]R[NMeF]L[NMeA][NMeF][dC]-OH; thioether N-15)				232	55	40	283	190	74	0.0262	40	continuous increase in grip strength was observed	cause the body weight to continuously increase	1.05	continuous increase in grip strength	body weight to continuously increase	3,247 ± 558 IU/L
